Values quoted from earlier work, collected in US7473804B2, “Polymorphs of atomoxetine hydrochloride” (Teva Pharmaceutical Fine Chemicals s.r.l., priority 2004, dated 2009).

Details: as disclosed in U.S. Pat. No. 4,018,895, EP 0 052 492, EP 0 721 777

CNCC[C@@H](Oc1ccccc1C)c1ccccc1 [Atomoxetine, (R)(−)-N-methyl-3-(2-methylphenoxy)-3-phenylpropylamine]
effectiveness relative to the (+)-enantiomer: about nine times more effective than the (+)-enantiomer | effectiveness relative to the racemic mixture (tomoxetine): about twice as effective as the racemic mixture
